The numbers were not newly measured in article PMC12060149 (RSC Advances, 2025), which cites them from elsewhere.

A word on the IC50: it is the midpoint of a concentration-inhibition curve.

Series [1] concerns the target ACE2 (Homo sapiens, UniProt Q9BYF1).
In series [2] the test system is MCF-7.
Series [3] concerns breast cancer tumor. The following applies: mice.

Sequence of ACE2 (Q9BYF1 18-805): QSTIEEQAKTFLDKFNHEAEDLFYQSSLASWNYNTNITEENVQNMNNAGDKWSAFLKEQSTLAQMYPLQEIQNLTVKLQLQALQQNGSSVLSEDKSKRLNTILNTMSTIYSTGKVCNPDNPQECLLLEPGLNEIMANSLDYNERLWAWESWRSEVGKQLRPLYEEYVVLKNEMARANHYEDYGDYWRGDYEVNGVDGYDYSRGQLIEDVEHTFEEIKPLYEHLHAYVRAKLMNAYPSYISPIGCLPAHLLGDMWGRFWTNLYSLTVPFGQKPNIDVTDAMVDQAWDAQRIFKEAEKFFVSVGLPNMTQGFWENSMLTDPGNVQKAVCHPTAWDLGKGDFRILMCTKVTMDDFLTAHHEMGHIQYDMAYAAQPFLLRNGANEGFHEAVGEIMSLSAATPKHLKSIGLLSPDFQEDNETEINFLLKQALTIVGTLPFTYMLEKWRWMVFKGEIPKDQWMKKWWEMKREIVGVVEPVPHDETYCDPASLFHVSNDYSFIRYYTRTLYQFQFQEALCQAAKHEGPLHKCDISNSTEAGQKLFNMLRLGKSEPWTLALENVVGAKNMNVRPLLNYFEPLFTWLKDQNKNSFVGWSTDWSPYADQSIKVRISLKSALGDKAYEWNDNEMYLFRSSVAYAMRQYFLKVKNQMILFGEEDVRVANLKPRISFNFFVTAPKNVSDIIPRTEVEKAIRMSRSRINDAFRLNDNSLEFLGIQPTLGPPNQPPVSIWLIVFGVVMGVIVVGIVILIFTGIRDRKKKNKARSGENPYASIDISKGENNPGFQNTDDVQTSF

Consider `NCCC(=O)N[C@@H](Cc1cnc[nH]1)C(=O)O` [carnosine, Carnosine], for which the “concentration range of mild ACE2 inhibition” value in series [1] is 100 to 300 mM. The MCF-7 proliferation entry in series [2] (carnosine in the 100–300 mM range) is “increased but non-significantly”. Besides, the IC50 in series [2] (read-out: IC50 of antiproliferative effect, two other research groups) is approximately 68 mM. Further, the “breast cancer tumor size” value in series [3] is recorded as “reduces the breast cancer tumor size”.
